# Experimental data taken from the Kinase Knowledgebase extract (Sharma et al. 2016).
# Target: EGFR (human) (UniProt P00533)
# Conditions: mcf-7
# EGFR (human), sequence (P00533 whole entry, looked up): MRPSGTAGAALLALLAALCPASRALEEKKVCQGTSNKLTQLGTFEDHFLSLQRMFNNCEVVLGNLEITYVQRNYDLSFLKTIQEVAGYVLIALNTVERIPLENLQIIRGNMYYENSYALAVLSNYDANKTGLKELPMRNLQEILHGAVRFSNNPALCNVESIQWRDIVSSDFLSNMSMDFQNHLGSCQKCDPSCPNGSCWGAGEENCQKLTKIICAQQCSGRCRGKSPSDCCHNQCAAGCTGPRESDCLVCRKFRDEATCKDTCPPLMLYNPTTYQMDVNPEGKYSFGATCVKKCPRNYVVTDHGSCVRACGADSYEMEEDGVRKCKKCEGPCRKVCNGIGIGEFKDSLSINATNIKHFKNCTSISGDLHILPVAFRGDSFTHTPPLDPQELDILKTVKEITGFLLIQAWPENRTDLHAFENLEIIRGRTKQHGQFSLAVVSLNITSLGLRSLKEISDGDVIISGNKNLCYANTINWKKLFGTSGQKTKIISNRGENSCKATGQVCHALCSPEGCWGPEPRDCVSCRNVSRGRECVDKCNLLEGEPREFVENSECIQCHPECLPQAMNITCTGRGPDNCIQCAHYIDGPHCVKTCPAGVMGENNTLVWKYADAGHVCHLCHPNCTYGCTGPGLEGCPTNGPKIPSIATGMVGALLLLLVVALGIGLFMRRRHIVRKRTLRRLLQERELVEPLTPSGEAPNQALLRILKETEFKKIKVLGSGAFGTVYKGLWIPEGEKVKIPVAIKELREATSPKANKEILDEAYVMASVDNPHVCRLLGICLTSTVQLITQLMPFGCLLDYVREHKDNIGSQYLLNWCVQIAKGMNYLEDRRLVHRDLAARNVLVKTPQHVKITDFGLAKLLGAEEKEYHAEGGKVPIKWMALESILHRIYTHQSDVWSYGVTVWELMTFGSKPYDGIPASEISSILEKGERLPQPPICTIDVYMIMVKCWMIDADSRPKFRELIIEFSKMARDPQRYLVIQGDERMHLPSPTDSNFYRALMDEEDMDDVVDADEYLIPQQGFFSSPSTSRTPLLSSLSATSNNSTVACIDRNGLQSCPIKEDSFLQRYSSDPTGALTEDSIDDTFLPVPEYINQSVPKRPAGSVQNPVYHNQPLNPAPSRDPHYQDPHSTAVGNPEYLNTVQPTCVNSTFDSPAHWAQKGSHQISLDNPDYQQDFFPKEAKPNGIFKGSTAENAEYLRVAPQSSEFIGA
row,Compound,IC50 [nM]
1,CCOc1ccc2nc(C)cc(Nc3cccc(O)c3)c2c1,2.84
2,COc1cc2nc(Cl)nc(Nc3ccc(S(=O)(=O)Nc4nccs4)cc3)c2cc1OC,0.13
3,CCOc1ccc2nc(C)cc(Nc3ccc(S(=O)(=O)NC(=N)N)cc3)c2c1,19.2
4,COc1cc2nc(Cl)nc(N3CCN(S(=O)(=O)c4ccc(C)cc4)CC3)c2cc1OC,1.08
5,CCOc1ccc2nc(C)cc(Nc3cc(OC)c(OC)cc3C(=O)OC)c2c1,1.67
6,COc1cc2nc(Cl)nc(Nc3ccc(S(=O)(=O)Nc4cc(C)on4)cc3)c2cc1OC,1.98
7,CCOc1ccc2nc(C)cc(N3CCN(C(=O)c4ccco4)CC3)c2c1,4.31
8,CCOc1ccc2nc(C)cc(Nc3ccc(S(=O)(=O)Nc4cc(C)on4)cc3)c2c1,13.8
9,CCOc1ccc2nc(C)cc(Nc3ccc(Cl)cc3Cl)c2c1,4.38
10,CCOc1ccc2nc(C)cc(Nc3ccc(S(=O)(=O)Nc4ncccn4)cc3)c2c1,3.96
